# Results published in paper PMC8145938, “Triphenilphosphonium Analogs of Chloramphenicol as Dual-Acting Antimicrobial and Antiproliferating Agents” (Antibiotics, 2021).
# Assays:
# [1] = test system: ribosome stalling on trpL mRNA in a cell-free translation system; assay: toeprinting (primer extension inhibition) assay on trpL mRNA; type: biochemical; conditions: trpL mRNA template, 30 μM compound
# Excerpt: To investigate the mechanism of action of CAM-C10-TPP and CAM-C14-TPP in the translation process, a primer extension inhibition assay (toeprinting) was used. This method allows for the unambiguous identification of drug-induced ribosome stalling sites along the mRNA, with single-nucleotide precision. This technique is also used to determine the context-specificity of antibiotic action. For this experiment, trpL mRNAs were chosen as the template, as in the pDualrep2 reporter system. […] Compared to the results obtained previously for CAM-C4-TPP using rst1 and rst2 mRNA templates, more unambiguous results were obtained using a trpL mRNA template. The main drug-induced ribosome stalling sites are different for CHL and CAM-Cn-TPP, and there are also CAM-Cn-TPP-specific stalling positions.
# The toeprinting assay was carried out using trpL mRNA as a template, as described in [73], and the reactions were preincubated for 5 min with 30 μM of the tested compound.
# B. subtilis cells = assay: membrane potential by DiS-C3-(5) fluorescence; type: cell-based, Bacillus subtilis
# Excerpt: Thus, we further examined the effect of CAM-Cn-TPP on the bacterial membrane potential of B. subtilis. In particular, the membrane potential of B. subtilis can be estimated from the fluorescence of the potential-sensitive dye, DiS-C3-(5), by measuring the changing fluorescence. The potential-dependent accumulation of the dye inside the bacterial cell causes quenching and leads to a decrease in fluorescence. Under the influence of substances that reduce the membrane potential, the dye is released and the fluorescence increases. […] Therefore, the action of CAM-Cn-TPP may have a double effect on bacterial cells and be based on the depolarization of the bacterial membrane by analogy with the mechanism of action of Cn-TPP [17].
# The membrane potential of B. subtilis was estimated by measuring the fluorescence of the potential-dependent probe, DiS-C3-(5). B. subtilis from the overnight culture were seeded into a fresh LB medium, followed by growth for […], until reaching the optical density of 0.8 at 600 nm. Then, the bacteria were diluted 20-fold in a buffer containing 100 mM of KCl and 10 mM of Tris, pH 7.4. The fluorescence was measured at 670 nm (excitation at 630 nm) using a Fluorat-02-Panorama fluorimeter.
# [2] = test system: MDA-MB-231 and BT-549 TNBC-sensitive and chemoresistant cells; assay: cancer cell proliferation / viability assay (MTT); type: cell-based; conditions: 3 days treatment
# Excerpt: We recently provided in vivo [67] and in vitro [68] evidence that certain bactericidal antibiotics suppress tumor growth by inducing mitochondrial dysfunction. […] These cells differ from the corresponding parental cells and display a different response to the same microenvironmental stimuli, allowing them to reduce their proliferating rate and survive chemotherapeutic treatment. Here, we tested the abovementioned CAM-TPP derivatives on chemoresistant triple negative breast cancer (TNBC) cell models, as well as on corresponding CSC-like spheroid cells. We created several relevant models based on TNBC cell lines, particularly MDA-MB-231 and BT-549, to determine their resistance to cyclophosphamide. To create CSC-like cells, parental cells were resuspended in nonadherent conditions to form tumorspheres.
# The MDA-MB-231 (RRID: CVCL_0062) and BT-549 (RRID: CVCL_1092) cell lines were purchased from ATCC and cultured in DMEM/F12 (Gibco, Life Technologies, 31330-038) supplemented with 10% FBS, 1% Pen-Strep, 1% Sodium Pyruvate, and 1% L-glutamine. Chemoresistant cell lines were established with continuous treatment for 6 months with the anticancer therapeutic agent, cyclophosphamide (Rcyclo), as previously described. These cell lines were authenticated using short tandem repeat (STR) profiling within the last three years. […] The relative numbers of tumourspheres per well were counted manually. […]
# The survival assay was performed essentially as described earlier. […] The absorbance was measured at 570 nm in Bio Spec 1601, Shimadzu spectrometer. […] The results were expressed as the means ± SEM. The data were analyzed using the GraphPad Prism 7 PRIZM computer software under the license of the Statistical Department (Vall’ d Hebron Hospital, Barcelona, Spain).
# E. coli 70S ribosomes = test system: E. coli 70S ribosomes; set-up: method as in PMID 33916420; conditions: displacement of BODIPY-ERY from 70S ribosomes; read-out: apparent dissociation constant (KDapp); cited from earlier work
compound,measurement,setting,value
O=C(CCCC[P+](c1ccccc1)(c1ccccc1)c1ccccc1)N[C@H](CO)[C@H](O)c1ccc([N+](=O)[O-])cc1 [CAM-C4-TPP],drug-induced ribosome stalling site,[1],"blocked the ribosome progression at Val6 (Figure 2D, red arrowhead) and slightly blocked it at Ile4"
same,concentration at which the compound takes effect on membrane potential,B. subtilis cells,≥ 10 µM
same,effect on proliferation of TNBC cell lines,[2],"but not CAM-C4-TPP, significantly reduced the proliferation of TNBC cell lines"
same,Kd,E. coli 70S ribosomes,610 ± 70 nM
